{"source": "paper PMC11224111", "about": "“Optimizing the pharmacokinetics of an ^211At-labeled RGD peptide with an albumin-binding moiety via the administration of an albumin-binding inhibitor” (European Journal of Nuclear Medicine and Molecular Imaging, 2024)", "test_system": "U-87 MG tumor-bearing mice", "assay": "Biodistribution in U-87 MG tumor-bearing mice with IPBA", "assay_type": "in vivo", "conditions": "IPBA 10 eq at 1 h postinjection", "experimental": "To prepare tumor-bearing mice, 5 × 10^6 of U-87 MG cells were subcutaneously inoculated into the right shoulder of 4-week-old female BALB/c nude mice (13–15 g, Japan SLC, Inc.) as previously reported. At approximately 10-day postinoculation of U-87 MG cells, they were used for each experiment after tumor size reached 0.3–0.5 cm^3.\nAt 1-h postinjection of [^211At]1 (37 kBq) and [^125I]2 (37 kBq), IPBA (1.9 mg, 6.1 µmol) was administered at 10 molar equivalent of blood albumin. Mice were sacrificed at 65-, 70-min, 2-, 4-, 12-, and 24-h postinjection of [^211At]1 and [^125I]2. Tissues of interest were removed and weighed, and radioactivity counts of ^125I and ^211At were determined with an auto well gamma counter (ARC-7010; Hitachi Medical, Ltd., Tokyo, Japan) and corrected for background radiation. To determine the radioactivity excreted from the body for 24 h, mice were housed in metabolic cages (Metabolica, Sugiyama-Gen Co., Ltd., Tokyo, Japan).", "note": "Values joined by “and” are separate entries in the source; they are usually repeats but may differ in a detail not shown here. Equal entries are not always repeated."}
{"substance": "Ga-DOTA-K([^211At]APBA)-c(RGDfK) [[^211At]1]", "values": [{"measurement": "Radioactivity, Blood", "setting": "65 min after administration", "result": "13.96 (0.18) % injected activity per gram"}, {"measurement": "Radioactivity, Bone", "setting": "65 min after administration", "result": "4.07 (0.26) % injected activity per gram"}, {"measurement": "Radioactivity, Brain", "setting": "65 min after administration", "result": "0.36 (0.00) % injected activity per gram"}, {"measurement": "Radioactivity, Heart", "setting": "65 min after administration", "result": "5.28 (0.29) % injected activity per gram"}, {"measurement": "Radioactivity, Kidney", "setting": "65 min after administration", "result": "16.15 (1.45) % injected activity per gram"}, {"measurement": "Radioactivity, L. intestine", "setting": "65 min after administration", "result": "3.05 (0.10) % injected activity per gram"}, {"measurement": "Radioactivity, Liver", "setting": "65 min after administration", "result": "5.20 (0.50) % injected activity per gram"}, {"measurement": "Radioactivity, Lung", "setting": "65 min after administration", "result": "10.81 (0.60) % injected activity per gram"}, {"measurement": "Radioactivity, Muscle", "setting": "65 min after administration", "result": "2.80 (0.39) % injected activity per gram"}, {"measurement": "Radioactivity, Neck", "setting": "65 min after administration", "result": "0.04 (0.02) % injected activity"}, {"measurement": "Radioactivity, Pancreas", "setting": "65 min after administration", "result": "2.82 (0.16) % injected activity per gram"}, {"measurement": "Radioactivity, S. intestine", "setting": "65 min after administration", "result": "4.69 (0.26) % injected activity per gram"}, {"measurement": "Radioactivity, Spleen", "setting": "65 min after administration", "result": "4.06 (0.21) % injected activity per gram"}, {"measurement": "Radioactivity, Stomach", "setting": "65 min after administration", "result": "1.12 (0.28) % injected activity"}, {"measurement": "Radioactivity, Tumor", "setting": "65 min after administration", "result": "10.92 (0.34) % injected activity per gram"}, {"measurement": "Radioactivity, Blood", "setting": "70 min after administration", "result": "9.85 (0.55) % injected activity per gram"}, {"measurement": "Radioactivity, Bone", "setting": "70 min after administration", "result": "2.22 (0.60) % injected activity per gram"}, {"measurement": "Radioactivity, Brain", "setting": "70 min after administration", "result": "0.26 (0.02) % injected activity per gram"}, {"measurement": "Radioactivity, Heart", "setting": "70 min after administration", "result": "3.66 (0.27) % injected activity per gram"}, {"measurement": "Radioactivity, Kidney", "setting": "70 min after administration", "result": "11.02 (1.44) % injected activity per gram"}, {"measurement": "Radioactivity, L. intestine", "setting": "70 min after administration", "result": "2.25 (0.27) % injected activity per gram"}, {"measurement": "Radioactivity, Liver", "setting": "70 min after administration", "result": "3.72 (0.52) % injected activity per gram"}, {"measurement": "Radioactivity, Lung", "setting": "70 min after administration", "result": "7.40 (0.85) % injected activity per gram"}, {"measurement": "Radioactivity, Muscle", "setting": "70 min after administration", "result": "1.60 (0.16) % injected activity per gram"}, {"measurement": "Radioactivity, Neck", "setting": "70 min after administration", "result": "0.05 (0.00) % injected activity"}, {"measurement": "Radioactivity, Pancreas", "setting": "70 min after administration", "result": "1.95 (0.14) % injected activity per gram"}, {"measurement": "Radioactivity, S. intestine", "setting": "70 min after administration", "result": "3.61 (0.36) % injected activity per gram"}, {"measurement": "Radioactivity, Spleen", "setting": "70 min after administration", "result": "2.77 (0.39) % injected activity per gram"}, {"measurement": "Radioactivity, Stomach", "setting": "70 min after administration", "result": "0.78 (0.17) % injected activity"}, {"measurement": "Radioactivity, Tumor", "setting": "70 min after administration", "result": "10.79 (1.09) % injected activity per gram"}, {"measurement": "Radioactivity, Blood", "setting": "2 h after administration", "result": "8.06 (0.39) % injected activity per gram"}, {"measurement": "Radioactivity, Bone", "setting": "2 h after administration", "result": "3.04 (0.30) % injected activity per gram"}, {"measurement": "Radioactivity, Heart", "setting": "2 h after administration", "result": "2.86 (0.31) % injected activity per gram"}, {"measurement": "Radioactivity, Kidney", "setting": "2 h after administration", "result": "8.22 (0.51) % injected activity per gram"}, {"measurement": "Radioactivity, L. intestine", "setting": "2 h after administration", "result": "2.35 (0.97) % injected activity per gram"}, {"measurement": "Radioactivity, Liver", "setting": "2 h after administration", "result": "2.45 (0.21) % injected activity per gram"}, {"measurement": "Radioactivity, Lung", "setting": "2 h after administration", "result": "5.67 (0.59) % injected activity per gram"}, {"measurement": "Radioactivity, Muscle", "setting": "2 h after administration", "result": "1.96 (0.68) % injected activity per gram"}, {"measurement": "Radioactivity, Neck", "setting": "2 h after administration", "result": "0.04 (0.02) % injected activity"}, {"measurement": "Radioactivity, Pancreas", "setting": "2 h after administration", "result": "1.64 (0.14) % injected activity per gram"}, {"measurement": "Radioactivity, S. intestine", "setting": "2 h after administration", "result": "2.42 (0.70) % injected activity per gram"}, {"measurement": "Radioactivity, Spleen", "setting": "2 h after administration", "result": "2.34 (0.18) % injected activity per gram"}, {"measurement": "Radioactivity, Stomach", "setting": "2 h after administration", "result": "0.81 (0.05) % injected activity"}, {"measurement": "Radioactivity, Tumor", "setting": "2 h after administration", "result": "13.38 (1.48) % injected activity per gram"}, {"measurement": "Radioactivity, Blood", "setting": "4 h after administration", "result": "3.04 (0.26) % injected activity per gram"}, {"measurement": "Radioactivity, Bone", "setting": "4 h after administration", "result": "1.60 (0.14) % injected activity per gram"}, {"measurement": "Radioactivity, Brain", "setting": "4 h after administration", "result": "0.18 (0.02) % injected activity per gram"}, {"measurement": "Radioactivity, Heart", "setting": "4 h after administration", "result": "1.44 (0.10) % injected activity per gram"}, {"measurement": "Radioactivity, Kidney", "setting": "4 h after administration", "result": "5.32 (0.35) % injected activity per gram"}, {"measurement": "Radioactivity, L. intestine", "setting": "4 h after administration", "result": "4.03 (1.33) % injected activity per gram"}, {"measurement": "Radioactivity, Liver", "setting": "4 h after administration", "result": "1.34 (0.05) % injected activity per gram"}, {"measurement": "Radioactivity, Lung", "setting": "4 h after administration", "result": "3.34 (0.11) % injected activity per gram"}, {"measurement": "Radioactivity, Muscle", "setting": "4 h after administration", "result": "0.61 (0.01) % injected activity per gram"}, {"measurement": "Radioactivity, Neck", "setting": "4 h after administration", "result": "0.02 (0.00) % injected activity"}, {"measurement": "Radioactivity, Pancreas", "setting": "4 h after administration", "result": "0.93 (0.26) % injected activity per gram"}, {"measurement": "Radioactivity, S. intestine", "setting": "4 h after administration", "result": "3.03 (0.65) % injected activity per gram"}, {"measurement": "Radioactivity, Spleen", "setting": "4 h after administration", "result": "2.18 (0.13) % injected activity per gram"}, {"measurement": "Radioactivity, Stomach", "setting": "4 h after administration", "result": "0.75 (0.01) % injected activity"}, {"measurement": "Radioactivity, Tumor", "setting": "4 h after administration", "result": "12.48 (0.95) % injected activity per gram"}, {"measurement": "Radioactivity, Blood", "setting": "12 h after administration", "result": "2.71 (0.21) % injected activity per gram"}, {"measurement": "Radioactivity, Bone", "setting": "12 h after administration", "result": "1.10 (0.24) % injected activity per gram"}, {"measurement": "Radioactivity, Brain", "setting": "12 h after administration", "result": "0.12 (0.01) % injected activity per gram"}, {"measurement": "Radioactivity, Heart", "setting": "12 h after administration", "result": "1.49 (0.11) % injected activity per gram"}, {"measurement": "Radioactivity, Kidney", "setting": "12 h after administration", "result": "3.12 (0.14) % injected activity per gram"}, {"measurement": "Radioactivity, L. intestine", "setting": "12 h after administration", "result": "0.89 (0.06) % injected activity per gram"}, {"measurement": "Radioactivity, Liver", "setting": "12 h after administration", "result": "1.04 (0.12) % injected activity per gram"}, {"measurement": "Radioactivity, Lung", "setting": "12 h after administration", "result": "3.50 (0.28) % injected activity per gram"}, {"measurement": "Radioactivity, Muscle", "setting": "12 h after administration", "result": "0.54 (0.02) % injected activity per gram"}, {"measurement": "Radioactivity, Neck", "setting": "12 h after administration", "result": "0.09 (0.03) % injected activity"}, {"measurement": "Radioactivity, Pancreas", "setting": "12 h after administration", "result": "0.92 (0.08) % injected activity per gram"}, {"measurement": "Radioactivity, S. intestine", "setting": "12 h after administration", "result": "1.01 (0.14) % injected activity per gram"}, {"measurement": "Radioactivity, Spleen", "setting": "12 h after administration", "result": "1.41 (0.12) % injected activity per gram"}, {"measurement": "Radioactivity, Stomach", "setting": "12 h after administration", "result": "0.72 (0.09) % injected activity"}, {"measurement": "Radioactivity, Tumor", "setting": "12 h after administration", "result": "7.73 (0.76) % injected activity per gram"}, {"measurement": "Radioactivity, Blood", "setting": "24 h after administration", "result": "2.21 (0.38) % injected activity per gram"}, {"measurement": "Radioactivity, Bone", "setting": "24 h after administration", "result": "0.64 (0.16) % injected activity per gram"}, {"measurement": "Radioactivity, Brain", "setting": "24 h after administration", "result": "0.26 (0.31) % injected activity per gram"}, {"measurement": "Radioactivity, Heart", "setting": "24 h after administration", "result": "0.90 (0.31) % injected activity per gram"}, {"measurement": "Radioactivity, Kidney", "setting": "24 h after administration", "result": "1.91 (0.38) % injected activity per gram"}, {"measurement": "Radioactivity, L. intestine", "setting": "24 h after administration", "result": "0.41 (0.24) % injected activity per gram"}, {"measurement": "Radioactivity, Liver", "setting": "24 h after administration", "result": "0.73 (0.17) % injected activity per gram"}, {"measurement": "Radioactivity, Lung", "setting": "24 h after administration", "result": "2.31 (0.34) % injected activity per gram"}, {"measurement": "Radioactivity, Muscle", "setting": "24 h after administration", "result": "0.32 (0.07) % injected activity per gram"}, {"measurement": "Radioactivity, Neck", "setting": "24 h after administration", "result": "0.04 (0.01) % injected activity"}, {"measurement": "Radioactivity, Pancreas", "setting": "24 h after administration", "result": "0.41 (0.12) % injected activity per gram"}, {"measurement": "Radioactivity, S. intestine", "setting": "24 h after administration", "result": "0.46 (0.22) % injected activity per gram"}, {"measurement": "Radioactivity, Spleen", "setting": "24 h after administration", "result": "1.22 (0.27) % injected activity per gram"}, {"measurement": "Radioactivity, Stomach", "setting": "24 h after administration", "result": "0.61 (0.18) % injected activity"}, {"measurement": "Radioactivity, Tumor", "setting": "24 h after administration", "result": "6.15 ± 0.20 % injected activity per gram and 6.15 (0.20) % injected activity per gram"}, {"measurement": "Radioactivity excreted, Feces", "setting": "until 24 h postinjection", "result": "4.09 ± 1.69 % injected activity and 4.09 (1.69) % injected activity"}, {"measurement": "Radioactivity excreted, Urine", "setting": "until 24 h postinjection", "result": "38.98 ± 5.39 % injected activity and 38.98 (5.39) % injected activity"}]}
